ChEMBL document CHEMBL1201862, “PubChem BioAssay data set” (2004)
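Each compound was tested at five concentrations against cells in 96-well plates for 48 hours. Here, GI50 denotes the concentration required for 50% inhibition of growth.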 Calls of active or inactive are those of the source. Cut-off read from the data, not from the text of the source: active = GI50 up to about 1.1 µM and inactive = higher.

How the values were obtained:
Experiment in all cases: NCI-60 cell line screen, 48 h
786-0 = tested on: 786-0
A549 = tested on: A549
HCT-116 = tested on: HCT-116
HCT-15 = tested on: HCT-15
HT-29 = tested on: HT-29
MCF7 = tested on: MCF7
OVCAR-8 = tested on: OVCAR-8
RXF 393 = tested on: RXF 393
SF-295 = tested on: SF-295
SK-MEL-28 = tested on: SK-MEL-28
SK-MEL-2 = tested on: SK-MEL-2
SK-OV-3 = tested on: SK-OV-3
SN12C = tested on: SN12C
SNB-19 = tested on: SNB-19
TK-10 = tested on: TK-10
U-251 = tested on: U-251
T47D = tested on: T47D

Row | SMILES | GI50 (786-0) | GI50 (A549) | GI50 (HCT-116) | GI50 (HCT-15) [µM] | GI50 (HT-29) | GI50 (MCF7) | GI50 (OVCAR-8) | GI50 (RXF 393) | GI50 (SF-295) | GI50 (SK-MEL-28) | GI50 (SK-MEL-2) | GI50 (SK-OV-3) | GI50 (SN12C) | GI50 (SNB-19) | GI50 (TK-10) | GI50 (U-251) | GI50 (T47D)
1 | Cc1ccc(O)c(-c2csc(NCN3CCN(CNc4nc(-c5cc(C)ccc5O)cs4)CC3)n2)c1 | > 100 µM (inactive) | > 100 µM (inactive) | > 100 µM (inactive) | > 100 | > 100 µM (inactive) | > 100 µM (inactive) | > 100 µM (inactive) | > 100 µM (inactive) | > 100 µM (inactive) | > 100 µM (inactive) | > 100 µM (inactive) | > 100 µM (inactive) | > 100 µM (inactive) | > 100 µM (inactive) | > 100 µM (inactive) | > 100 µM (inactive) | –
2 | CC(=O)Oc1ccn2nc(C)c(Br)c2c1Br | 36.5 µM (inactive) | 23.1 µM (inactive) | 23 µM (inactive) | 16.9 | 20.7 µM (inactive) | 17.8 µM (inactive) | 29.4 µM (inactive) | > 10 µM (inactive) | 30.5 µM (inactive) | 21.4 µM (inactive) | 27.5 µM (inactive) | – | 27.7 µM (inactive) | 49.9 µM (inactive) | 45 µM (inactive) | 35.1 µM (inactive) | 29.3 µM (inactive)
3 | CC1(C)O[C@@H](CBr)C[C@H](C[C@H]2C[C@@H](O)C[C@@H](CCOCc3ccccc3)O2)O1 | 19.4 µM (inactive) | 23.9 µM (inactive) | 21.3 µM (inactive) | 24.2 | – | 20 µM (inactive) | 21.5 µM (inactive) | – | 17 µM (inactive) | 25.2 µM (inactive) | 16.4 µM (inactive) | 18.1 µM (inactive) | 30.4 µM (inactive) | 25.5 µM (inactive) | 20.4 µM (inactive) | 31.8 µM (inactive) | 14.9 µM (inactive)
4 | CCCN(C(=O)c1ccccc1)C(C#N)c1ccc(C(C#N)N(CCC)C(=O)c2ccccc2)cc1 (configuration not stated) | 38.1 µM (inactive) | 56.6 µM (inactive) | > 100 µM (inactive) | > 100 | 21.6 µM (inactive) | > 100 µM (inactive) | 55.3 µM (inactive) | 35.6 µM (inactive) | 42.4 µM (inactive) | – | > 100 µM (inactive) | 22 µM (inactive) | > 100 µM (inactive) | 26.1 µM (inactive) | > 100 µM (inactive) | 40 µM (inactive) | 11.2 µM (inactive)
5 | O=C(C/N=C(\CN(c1ccccc1)c1ccccc1)Oc1c(Cl)cc(Cl)cc1Cl)n1cnc2ccccc21 | > 100 µM (inactive) | > 100 µM (inactive) | 34 µM (inactive) | 43.8 | 44.2 µM (inactive) | 71 µM (inactive) | 35.3 µM (inactive) | < 0.01 µM (active) | > 100 µM (inactive) | > 100 µM (inactive) | – | > 100 µM (inactive) | 56.2 µM (inactive) | > 100 µM (inactive) | > 100 µM (inactive) | 82.6 µM (inactive) | 33.3 µM (inactive)
6 | Cc1cc(Br)c(O)c(-c2cscn2)c1 | 2.43 µM (inactive) | 20.2 µM (inactive) | 12.6 µM (inactive) | 5.57 | 27.3 µM (inactive) | – | 10.9 µM (inactive) | – | 23.2 µM (inactive) | – | 19.3 µM (inactive) | 54.6 µM (inactive) | 10.5 µM (inactive) | 15.2 µM (inactive) | 22.4 µM (inactive) | – | –
7 | Clc1ccc(C(Cc2cccc(Cl)c2)c2c(Cl)nc(N3CCNCC3)nc2Cl)cc1 (configuration not stated) | 14.4 µM (inactive) | 16 µM (inactive) | 13.2 µM (inactive) | 13.6 | > 100 µM (inactive) | 10.8 µM (inactive) | 19.1 µM (inactive) | – | 16.8 µM (inactive) | 19.5 µM (inactive) | 21.6 µM (inactive) | 13.7 µM (inactive) | – | 16.9 µM (inactive) | 16.4 µM (inactive) | 16.4 µM (inactive) | 16.4 µM (inactive)
8 | CC1=CC(=O)N(n2c(Cc3ccc(Cl)cc3)n[nH]c2=O)C1=O | 60.5 µM (inactive) | 77.6 µM (inactive) | 40.3 µM (inactive) | 44.9 | 19.5 µM (inactive) | 30.5 µM (inactive) | 55.5 µM (inactive) | 8.24 µM (inactive) | 28.4 µM (inactive) | – | > 100 µM (inactive) | > 100 µM (inactive) | 81.3 µM (inactive) | 55.6 µM (inactive) | 98.9 µM (inactive) | 27.2 µM (inactive) | 35.4 µM (inactive)
9 | N#CC1C(=O)NC23CCCCC2C1c1ccccc1O3 (configuration not stated) | > 100 µM (inactive) | > 100 µM (inactive) | > 100 µM (inactive) | > 100 | > 100 µM (inactive) | > 100 µM (inactive) | > 100 µM (inactive) | > 100 µM (inactive) | > 100 µM (inactive) | 53.5 µM (inactive) | > 100 µM (inactive) | > 100 µM (inactive) | – | > 100 µM (inactive) | > 100 µM (inactive) | > 100 µM (inactive) | –
